Results: article PMC8308639, “Synthesis and Human Carbonic Anhydrase I, II, IX, and XII Inhibition Studies of Sulphonamides Incorporating Mono-, Bi- and Tricyclic Imide Moieties” (Pharmaceuticals, 2021)
Structures can show the parent of a compound that is named as a salt. Where two headings read alike, the source gives them in different places.

Tests used:
[1] = target: hCA XII (Homo sapiens, UniProt O43570); test: CA-catalysed CO2 hydration stopped-flow inhibition assay, hCA XII; conditions: for Ki: stopped-flow CO2 hydration, mean ± standard error, three assays; for Selectivity Ratio B = hCA II/XII: ratio of Ki hCA II / Ki hCA XII
Chain of hCA XII (O43570 25-354): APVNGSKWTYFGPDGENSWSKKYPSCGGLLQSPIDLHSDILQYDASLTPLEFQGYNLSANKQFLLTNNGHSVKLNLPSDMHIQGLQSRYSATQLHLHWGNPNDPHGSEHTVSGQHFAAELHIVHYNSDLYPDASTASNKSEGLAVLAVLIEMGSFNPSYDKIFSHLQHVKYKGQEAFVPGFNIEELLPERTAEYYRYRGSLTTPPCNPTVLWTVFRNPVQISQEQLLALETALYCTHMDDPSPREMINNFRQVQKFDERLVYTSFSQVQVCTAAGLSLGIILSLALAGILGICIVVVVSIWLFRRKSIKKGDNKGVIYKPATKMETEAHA

[2] = Qualitative solubility; assay type: physicochemical
[3] = target: hCA IX (Homo sapiens, UniProt Q16790); test: CA-catalysed CO2 hydration stopped-flow inhibition assay, hCA IX; conditions: for Ki: stopped-flow CO2 hydration, mean ± standard error, three assays; for Selectivity Ratio A = hCA II/IX: ratio of Ki hCA II / Ki hCA IX
[4] = target: hCA II (Homo sapiens, UniProt P00918); test: CA-catalysed CO2 hydration stopped-flow inhibition assay, hCA II
[5] = target: hCA I (Homo sapiens, UniProt P00915); test: CA-catalysed CO2 hydration stopped-flow inhibition assay, hCA I
Chain of hCA I (P00915 whole entry): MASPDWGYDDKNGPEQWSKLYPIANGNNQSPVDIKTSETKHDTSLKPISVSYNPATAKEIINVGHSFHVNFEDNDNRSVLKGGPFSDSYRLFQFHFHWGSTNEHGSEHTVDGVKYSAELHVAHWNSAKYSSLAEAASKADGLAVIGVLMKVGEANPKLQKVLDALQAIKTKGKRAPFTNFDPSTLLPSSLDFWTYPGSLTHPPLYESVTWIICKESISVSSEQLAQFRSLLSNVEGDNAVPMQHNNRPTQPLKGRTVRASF

[6] = Ki (nM) hCA II, mean ± standard error, three assays

SMILES	melting point [°C]	solubility in water [2]	Ki ([1]; Ki (nM) hCA XII) [nM]	Ki ([3]; Ki (nM) hCA IX) [nM]	also measured
NS(=O)(=O)c1ccc(N2C(=O)c3cccc4c(S(=O)(=O)O)ccc(c34)C2=O)cc1 (as salt: potassium) [Compound 1, 4-(4-sulfo-1,8-napthalic-1,3-dioxopyridine) potassium benzenesulphonamide]	277				
NS(=O)(=O)c1ccc(S(=O)(=O)Nc2cccc3c(Cl)c[nH]c23)cc1 [IND, Indisulam, reference compound]					Ki ([1]; read-out: Ki (nM) hCA XII): 3.4 ± 0.2 nM
NS(=O)(=O)c1ccc(CCN2C(=O)C=CC2=O)cc1 [Compound 2, 4-(2-(2,5-dioxo-2H-pyrrol-1(5H)-yl)ethyl)benzenesulphonamide]	210	insoluble	69 ± 4.5	7420 ± 348	
NS(=O)(=O)c1ccc(N2C(=O)c3c(Cl)c(Cl)c(Cl)c(Cl)c3C2=O)c(F)c1 [Compound 11, 3-fluoro-4-(4,5,6,7-tetrachloro-1,3-dioxoisoindolin-2-yl) benzenesulphonamide]	278	insoluble	14 ± 1	88 ± 7	
NS(=O)(=O)c1ccc(N2C(=O)c3c(Cl)c(Cl)c(Cl)c(Cl)c3C2=O)cc1 [Compound 6, 4-(4,5,6,7-tetrachloro-1,3-dioxoisoindolin-2-yl) benzenesulphonamide]		insoluble			
NS(=O)(=O)c1ccc(CCN2C(=O)c3c(Cl)c(Cl)c(Cl)c(Cl)c3C2=O)cc1 [Compound 8, 4-(2-(4,5,6,7-tetrachloro-1,3-dioxoisoindolin-2-yl)ethyl)benzenesulphonamide]	286	insoluble	226 ± 13		
NS(=O)(=O)c1ccc2sc(N3C(=O)c4c(Br)c(Br)c(Br)c(Br)c4C3=O)nc2c1 [Compound 4, 2-(4,5,6,7-Tetrabromo-1,3-dioxoisoindolin-2-yl) Benzo[d]Thiazole-5-Sulphonamide]		insoluble	87 ± 6	4030 ± 237	Ki [4, 6]: 44 ± 1.9 nM; Selectivity Ratio B = hCA II/XII [1]: 0.506; Selectivity Ratio A = hCA II/IX [3]: 0.011; Ki [5]: 463 ± 29 nM
NS(=O)(=O)c1ccc2sc(N3C(=O)c4c(Cl)c(Cl)c(Cl)c(Cl)c4C3=O)nc2c1 [Compound 3, 2-(4,5,6,7-tetrachloro-1,3-dioxoisoindolin-2-yl) benzo[d]thiazole-5-sulphonamide]	302.2	fully soluble	80 ± 7	933 ± 56	Selectivity Ratio A = hCA II/IX [3]: 0.795; Ki [5]: 258 ± 12 nM
NS(=O)(=O)c1ccc(N2C(=O)c3ccc([N+](=O)[O-])cc3C2=O)c(F)c1 [Compound 5, 3-fluoro-4-(5-nitro-1,3-dioxoisoindolin-2-yl) benzenesulphonamide]	232	insoluble	75 ± 4	4900 ± 300	Ki [4, 6]: 4.6 ± 0.3 nM; Selectivity Ratio B = hCA II/XII [1]: 0.061; Ki [5]: 400 ± 31 nM
NS(=O)(=O)c1cccc(N2C(=O)c3c(Cl)c(Cl)c(Cl)c(Cl)c3C2=O)c1 [Compound 9, 3-(4,5,6,7-tetrachloro-1,3-dioxoisoindolin-2-yl) benzenesulphonamide]	308	insoluble	316 ± 28	498 ± 34	
NS(=O)(=O)c1ccc(N2C(=O)c3c(Cl)c(Cl)c(Cl)c(Cl)c3C2=O)c(Br)c1 [Compound 13, 3-bromo-4-(4,5,6,7-tetrachloro-1,3-dioxoisoindolin-2-yl) benzenesulphonamide]	265	insoluble	99 ± 3.5	40 ± 1.5	
NS(=O)(=O)c1ccc(N2C(=O)c3c(Cl)c(Cl)c(Cl)c(Cl)c3C2=O)c(Cl)c1 [Compound 12, 3-chloro-4-(4,5,6,7-tetrachloro-1,3-dioxoisoindolin-2-yl)benzenesulphonamide]	303	insoluble	22 ± 1.7	49 ± 0.4	
NS(=O)(=O)c1ccc(N2C(=O)c3cccc4c(S(=O)(=O)O)ccc(c34)C2=O)cc1 [Compound 1, 4-(4-sulfo-1,8-napthalic-1,3-dioxopyridine) potassium benzenesulphonamide]		fully soluble			Ki ([4]; read-out: Ki (nM) hCA II, mean ± standard error, three assays): 13 ± 0.9 nM; Ki ([3]; read-out: Ki (nM) hCA IX): 7770 ± 145 nM; Ki ([5]; read-out: Ki (nM) hCA I, stopped-flow CO2 hydration, mean ± standard error, three assays): 49 ± 3.2 nM
NS(=O)(=O)c1ccccc1N1C(=O)c2c(Cl)c(Cl)c(Cl)c(Cl)c2C1=O [Compound 10, 2-(4,5,6,7-tetrachloro-1,3-dioxoisoindolin-2-yl) benzenesulphonamide]	313	insoluble	309 ± 24	559 ± 26	
NS(=O)(=O)c1ccc(CN2C(=O)c3c(Cl)c(Cl)c(Cl)c(Cl)c3C2=O)cc1 [Compound 7, 4-((4,5,6,7-Tetrachloro-1,3-dioxoisoindolin-2-yl) Methyl) Benzenesulphonamide]		insoluble		103 ± 5	
